Data reported in patent US9518283B1, “Selective enrichment media and uses thereof” (priority 2012, dated 2016).

Tests used:
[1] = system: Shiga toxin-producing E. coli and Salmonella; type: cell-based
[2] = system: non-Salmonella gram negative species; test: Media formulations / selective agents tested against competitor species; type: cell-based
Description: Several media formulations were tested for permitting growth of Salmonella while inhibiting growth of non-Salmonella species. […] To minimize the potential of such environmental microflora to contribute to false positive reactions in selective indicator media, flavonoid compounds were investigated. Myricetin was tested as a potential suitable inhibitor for at least some of these gram negative species.

## CCN(CC)c1ccc(C(=C2C=CC(=[N+](CC)CC)C=C2)c2ccccc2)cc1 [Brilliant green]
[1]
  effect against Shiga toxin-producing E. coli (or Salmonella): no effect

## O=c1c(O)c(-c2cc(O)c(O)c(O)c2)oc2cc(O)cc(O)c12 [Myricetin]
[2]; Citrobacter and E. coli inactive isolates
  effectiveness as inhibitor: of little use
[2]; Enterobacter and Klebsiella spp.
  inhibition: inhibits
[2]; K. oxytoca and E. aerogenes
  effectiveness as inhibitor: effective

## O=C1CN(N=Cc2ccc([N+](=O)[O-])o2)C(=O)N1 [nitrofurantoin, 1-[[(5-Nitro-2-furanyl)methylene]amino]-2,4-imidazolidinedione]
[1]
  effectiveness against Shiga toxin-producing E. coli and Salmonella: surprisingly ineffective
